We go through 27 molecules from ChEMBL document CHEMBL4834494, “Discovery of the First Non-cGMP Mimetic Small Molecule Activators of cGMP-Dependent Protein Kinase 1 α (PKG1α)” (ACS Med Chem Lett, 2021).

Series [1] is described as follows: Apparent permeability in dog MDCKII cells. It counts as ADME, cell-based, Canis lupus familiaris, MDCK-II. The conditions noted are these: MDCK.
Series [2] is described as follows: Solubility of compound by pH 7 measured for 24 hrs by UPLC analysis. It counts as physicochemical. The conditions noted are these: buffer.
Series [3] deals with T1, cGMP-dependent protein kinase 1 (Homo sapiens, UniProt Q13976).
T1 sequence (Q13976 whole entry): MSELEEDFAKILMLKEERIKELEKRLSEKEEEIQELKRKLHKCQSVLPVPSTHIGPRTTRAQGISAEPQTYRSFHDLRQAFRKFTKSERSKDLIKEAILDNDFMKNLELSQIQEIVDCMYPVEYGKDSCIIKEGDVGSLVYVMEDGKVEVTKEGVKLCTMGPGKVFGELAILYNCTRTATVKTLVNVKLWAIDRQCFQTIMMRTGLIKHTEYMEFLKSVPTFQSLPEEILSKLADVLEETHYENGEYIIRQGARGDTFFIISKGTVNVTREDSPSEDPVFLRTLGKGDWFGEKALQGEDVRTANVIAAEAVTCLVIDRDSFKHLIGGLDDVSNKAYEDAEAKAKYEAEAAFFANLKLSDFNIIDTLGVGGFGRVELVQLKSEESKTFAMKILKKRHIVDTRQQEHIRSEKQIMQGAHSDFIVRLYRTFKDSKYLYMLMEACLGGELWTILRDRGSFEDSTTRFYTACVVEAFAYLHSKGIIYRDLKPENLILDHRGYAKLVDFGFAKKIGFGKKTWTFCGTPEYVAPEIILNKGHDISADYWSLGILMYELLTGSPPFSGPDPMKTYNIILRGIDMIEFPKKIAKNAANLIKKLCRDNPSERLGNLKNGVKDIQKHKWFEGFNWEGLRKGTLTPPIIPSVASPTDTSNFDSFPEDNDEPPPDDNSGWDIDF
The experiment in a line: Activation of PKG1alpha (unknown origin) in human HEK293 cellls assessed as […] phosphorylation at Ser 239 incubated for 3 hrs by HTRF assay. It is filed as cell-based.

Series [4] concerns the target T1, cGMP-dependent protein kinase 1. Put plainly: Activation of full length PKG1alpha (unknown origin) using Glass-tide peptide substrate incubated for 120 mins followed by addition of ADP-Glo max reagent incubated for 40 mins. On the technique in general: ADP-Glo turns the ADP formed in a reaction into a luminescent signal.

Structures are written as SMILES. Converted amounts (≈) assume the structure as drawn.

Take `Clc1cc(Cl)cc(CO[C@H]2CCCN(Cc3ncc[nH]3)[C@H]2c2ccccc2)c1`: the Papp (in general, the rate of passage across a membrane or cell layer, normalised by area and donor concentration) in series [1] worked out at 2 ×10⁻⁶ cm/s. Also, the concentration in solution in series [2] (solubility at 24 h) was 120 µM (≈ 50 µg/mL). The EC50 (in general, the concentration at which the effect is half-maximal) in series [3] is greater than 164 µM.
In turn, `OC[C@@H](O[C@H]1CCCN(Cc2ccc(-c3nn[nH]n3)cc2)[C@H]1c1ccccc1)c1cc(Cl)cc(Cl)c1` gave an EC50 in series [4] of 131 µM.
Turning to `O=C(O)c1ccc(CN2CCC[C@H](OCc3cc(Cl)cc(Cl)c3)[C@@H]2c2ccccc2)cn1`, the concentration for a half-maximal effect (EC50) in series [4] is greater than 200 µM.
On to `O=C(O)c1cncc(CN2CCC[C@H](O[C@H](CO)c3cc(Cl)cc(Cl)c3)[C@@H]2c2ccccc2)c1`, for which, in series [1], the Papp stood at 14 ×10⁻⁶ cm/s. In series [2], the solubility (in general, how much of the substance goes into solution per volume) at 24 h came out at 74 µM (≈ 37.1 µg/mL). Besides, the EC50 turned out to be 34 µM in series [4] and 28 µM in series [3].
In turn, `CN1CCC[C@H](O[C@H](CO)c2cc(Cl)cc(Cl)c2)[C@@H]1c1ccccc1` showed a concentration giving a half-maximal response (EC50) in series [4] of 42 µM.
In turn, `Cn1cc(CN2CCC[C@H](OCc3cc(Cl)cc(Cl)c3)[C@@H]2c2ccccc2)cn1` had an EC50 in series [4] of 110 µM.
In the case of `Clc1cc(Cl)cc(CO[C@H]2CCCN(Cc3ccccn3)[C@H]2c2ccccc2)c1`, in series [4], the EC50 was greater than 200 µM.
`CN1CCC[C@H](OCc2cc(Cl)cc(Cl)c2)[C@@H]1c1ccccc1` had an EC50 in series [4] greater than 200 µM.
In turn, `Cn1ccnc1CN1CCC[C@H](OCc2cc(Cl)cc(Cl)c2)[C@@H]1c1ccccc1` displayed an EC50 in series [4] of 165 µM.
Consider `OC[C@@H](O[C@H]1CCCN(Cc2ncc[nH]2)[C@H]1c1ccccc1)c1cc(Cl)cc(Cl)c1`, for which, in series [1], the Papp came out at 19 ×10⁻⁶ cm/s. Moreover, in series [2], the concentration in solution (solubility at 24 h) came to 60 µM (≈ 26.8 µg/mL). Besides, in series [3], the 50% effective concentration (EC50) was determined as 8.8 µM.
`O=C(O)c1ccc(CN2CCC[C@H](OCc3cc(Cl)cc(Cl)c3)[C@@H]2c2ccccc2)cc1` came in with an EC50 in series [4] of 76 µM.
`Clc1cc(Cl)cc(CO[C@H]2CCCN(Cc3cccnc3)[C@H]2c2ccccc2)c1` came in with an EC50 in series [4] of 112 µM.
In turn, `O=C(O)c1cncc(CN2CCC[C@H](OCc3cc(Cl)cc(Cl)c3)[C@@H]2c2ccccc2)c1` yielded an EC50 in series [4] of 117 µM.
In series [4], `Clc1cc(Cl)cc(CO[C@H]2CCCN(Cc3ccc(-c4nn[nH]n4)cc3)[C@H]2c2ccccc2)c1` came in with a concentration for a half-maximal effect (EC50) of 74 µM.
In the case of `O=C(O)c1ccc(CN2CCC[C@H](O[C@H](CO)c3cc(Cl)cc(Cl)c3)[C@@H]2c2ccccc2)cc1`, the apparent permeability coefficient (Papp) in series [1] came to 16 ×10⁻⁶ cm/s. The same molecule yielded a solubility at 24 h in series [2] of 85 µM (≈ 42.5 µg/mL). For the same molecule, the figures for the concentration giving a half-maximal response (EC50) in series [4] and in series [3] were 11 µM and 15 µM, respectively.
Molecule `COc1cc(C(=O)O)ccc1CN1CCC[C@H](OCc2cc(Cl)cc(Cl)c2)[C@@H]1c1ccccc1` showed an EC50 in series [4] of 62 µM.
Take `OC[C@@H](O[C@H]1CCCN(Cc2cccc3nonc23)[C@H]1c1ccccc1)c1cc(Cl)cc(Cl)c1`: the Papp in series [1] amounted to 11 ×10⁻⁶ cm/s. The concentration in solution in series [2] (solubility at 24 h) was 154 µM (≈ 76.8 µg/mL). Further, the EC50 in series [4] worked out at 8 µM; in series [3], 141 µM.
For the molecule `Clc1cc(Cl)cc(CO[C@H]2CCCN(Cc3ncco3)[C@H]2c2ccccc2)c1`, in series [4], the EC50 was greater than 200 µM.
Take `Clc1cc(Cl)cc(CO[C@H]2CCCN(Cc3nccs3)[C@H]2c2ccccc2)c1`: in series [4], the concentration for a half-maximal effect (EC50) was greater than 200 µM.
For the molecule `O=C(O)c1ccc2c(CN3CCC[C@H](O[C@H](CO)c4cc(Cl)cc(Cl)c4)[C@@H]3c3ccccc3)c[nH]c2c1`, in series [1], the Papp stood at 4 ×10⁻⁶ cm/s. This molecule also yielded a solubility at 24 h in series [2] of 128 µM (≈ 69.1 µg/mL). In addition, the EC50 in series [4] came to 22 µM; in series [3], 140 µM.
Regarding `COC(=O)Nn1c(C[C@H]2CCC[C@H](OCc3cc(C(F)(F)F)cc(C(F)(F)F)c3)[C@@H]2c2ccccc2)n[nH]c1=O`, the apparent permeability coefficient (Papp) in series [1] came to 15 ×10⁻⁶ cm/s. Also, the concentration in solution in series [2] (solubility at 24 h) came to 154 µM (≈ 88.2 µg/mL). Further, the concentration giving a half-maximal response (EC50) is 4.5 µM in series [4] and 12 µM in series [3].
As to `OC[C@@H](O[C@H]1CCCN(Cc2ccccc2Cc2nnco2)[C@H]1c1ccccc1)c1cc(Cl)cc(Cl)c1`, it took 3.7 µM to reach a half-maximal effect in series [4] (EC50).
As for `O=C(O)c1ccc(CN2CCC[C@H](OCc3cc(Cl)cc(Cl)c3)[C@@H]2c2ccccc2)s1`, the response in series [4] was half-maximal at 76 µM (EC50).
As for `Clc1cc(Cl)cc(CO[C@H]2CCCN(Cc3ccccc3)[C@H]2c2ccccc2)c1`, the EC50 in series [4] was greater than 200 µM.
As to `Clc1cc(Cl)cc(CO[C@H]2CCCN(Cc3ccncc3)[C@H]2c2ccccc2)c1`, in series [4], the EC50 is greater than 200 µM.
Same read-out and setting: the value for `COc1ccc(C(=O)O)cc1CN1CCC[C@H](OCc2cc(Cl)cc(Cl)c2)[C@@H]1c1ccccc1` was 123 µM; that for `C[C@@H](O[C@H]1OCCN(Cc2n[nH]c(=O)[nH]2)[C@H]1c1ccc(F)cc1)c1cc(C(F)(F)F)cc(C(F)(F)F)c1` [APREPITANT] was greater than 200 µM.
